According to EP4775209A1 (Ascentawits Pharmaceuticals, Ltd., priority 2023, dated 2025):

Key:
[1] = tested on: HuPrime® pancreatic cancer PA1170 subcutaneous xenograft model; test: Pancreatic cancer PA1170 subcutaneous xenograft efficacy model; assay type: in vivo, BALB/c nude mice; conditions: for TGI (%): Day 30, P<0.05; for mean tumor volume: Day 30 after first administration
Description: (§1) Efficacy was evaluated based on the relative tumor growth inhibition rate TGI (%), and safety was evaluated based on animal body weight changes and mortality.

[2] = tested on: HuPrime® pancreatic cancer PA9451 subcutaneous xenograft model; test: Pancreatic cancer PA9451 subcutaneous xenograft efficacy model; assay type: in vivo, BALB/c nude mice; conditions: for TGI (%): Day 36, P<0.001; for mean tumor volume: Day 36 after first administration
Description: PA9451 is a HuPrime® xenograft model established from a pancreatic cancer tumor of a patient.
as §1

[3] = tested on: HuPrime® liver cancer LI6664 subcutaneous xenograft PDX model; test: Liver cancer LI6664 subcutaneous xenograft PDX efficacy model; assay type: in vivo, BALB/c nude mice; conditions: all AST-3424 treatment groups (0.3, 1, 1.25 mg/kg)
Description: The modeled BALB/c nude mice were randomly divided into groups (6 mice per group).

[4] = tested on: HuPrime® pancreatic cancer PA1280 subcutaneous xenograft model; test: Pancreatic cancer PA1280 subcutaneous xenograft efficacy model; assay type: in vivo, BALB/c nude mice
Description: The drug was administered via tail vein injection once weekly for a total of three weeks, followed by one week of observation.

[5] = GLP repeated-administration toxicity study (QD×5/21 Days) in monkeys; assay type: in vivo, cynomolgus monkeys; conditions: 5 cycles
Description: In a GLP repeated-administration toxicity study in cynomolgus monkeys, AS-3424 was intravenously infused to cynomolgus monkeys at doses of 0, 0.1, 0.2, or 0.4/0.3 mg/kg over 30 minutes on Days 1-5, Days 22-26, Days 43-47, Days 64-68, and Days 85-89.
During the trials, a decrease in #EOS (absolute eosinophil count), %EOS (% eosinophils), #RET (absolute reticulocyte count), and %RETIC (% reticulocytes) was primarily observed in the ≥0.1 mg/kg dose groups; a decrease in #NEUT, #LYMPH (lymphocyte absolute count), and %LYMPH (% lymphocyte) was also seen in the ≥ 0.2 mg/kg dose groups; and a decrease in WBC (white blood cell), HGB (hemoglobin), and HCT (hematocrit) was also seen in the 0.4/0.3 mg/kg dose group. Among them, the reduction in eosinophils was correlated with the reduction in the percentage of eosinophils in the bone marrow smears at the end of the administration period, and the decrease in lymphocytes was correlated with the reduction of lymphocytes in the thymic cortex under microscopic examination, which were considered to be secondary stress responses. All the above hematological changes were recoverable during the recovery period.

[6] = 1 mg/kg QD×5, 16 days off, QD×5
[7] = 2 mg/kg once weekly for 2 weeks

## C[C@H](OP(=O)(N1CC1)N1CC1)c1ccc([N+](=O)[O-])c(Oc2cccc(C(=O)N(C)C)c2)c1 [AST-3424]
[1]; [6]
  TGI (%): 97.60%
[1]; 1 mg/kg QD×5, 16 days off, QD×5, vehicle 1182.66
  mean tumor volume: 29.50 mm^3
[1]; [7]
  TGI (%): 94.83%
  mean tumor volume: 64.50 mm^3
[1]; AST-3424 groups 1 mg/kg QD×5 and 2 mg/kg QW, no animal deaths, no apparent drug toxicity
  tolerability (body weight changes and mortality): well tolerated
[2]; 0.5 mg/kg QD×5, 16 days off, QD×5
  TGI (%): 91.77%
[2]; 0.5 mg/kg QD×5, 16 days off, QD×5, vehicle 661.61
  mean tumor volume: 54.83 mm^3
[2]; [6]
  TGI (%): 92.99%
  mean tumor volume: 46.05 mm^3
[2]; [7]
  TGI (%): 88.53%
  mean tumor volume: 76.78 mm^3
[2]; AST-3424 groups 0.5, 1 mg/kg QD×5 and 2 mg/kg QW, no animal deaths, no apparent drug toxicity
  tolerability (body weight changes and mortality): well tolerated
[3]
  tolerability (body weight changes and mortality): well tolerated
[4]; 2.5 mg/kg once weekly for three weeks, no animal deaths, no apparent drug toxicity
  tolerability (body weight changes and mortality): well tolerated
[4]; 2.5 mg/kg tail vein once weekly for three weeks, Day 27, vehicle 475.07
  mean tumor volume: 190.34 mm^3
[5]; 0.1, 0.2, 0.4/0.3 mg/kg QD×5 per 21 days
  toxic target organs: duodenum, jejunum, colon, and cecum
[5]; 30-minute i.v. infusion QD×5 per 21 days
  HNSTD: 0.3 mg/kg
